Assay results taken from US10174067B2, “Type of cytidine derivative and application thereof” (priority 2014, dated 2019).
Marks after values point to notes of the source that are not given here.

Key:
[1] = Method in brief: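 Test compounds formulated in ethanol:Cremophor EL:saline (5:5:90), vehicle alone as control, in HCT-116 subcutaneous xenografts in female Balb/c nudes (6/group, start 60–150 mm^3). Weight measured three times weekly, tumour weight at end; unpaired t-test on Mean±SEM data.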
[2] = test system: HCT-116 colon cancer xenografts; assay: Tumor growth inhibition of HCT-116 colon cancer xenografts in tumor-bearing nude mice (tumor volume, TGI %, RTV, T/C %); assay type: in vivo, Balb/c Nude mice; settings: G10-G16 groups, single IP 400 mg/kg
Method in brief: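 Tumors in HCT-116-inoculated nude mice were sized three times weekly by diameter, with volume V=3/4π(D/2)^3. Significance set at P<0.05.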

ICR mice = assay: in vivo; settings: female ICR mice; single-dose ip
Method in brief: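 MTD, the dose without mortality, body-weight loss over 10% from Day 0 or marked adverse signs, was found by stepwise up/down single intraperitoneal dosing of female SPF ICR mice. Vehicle: ethanol:Cremophor EL:saline 5:5:90. Animals weighed daily and clinically checked twice daily for up to 14 days.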

[3] = Day 1, G10-G16 groups, single IP 400 mg/kg, Mean±SEM
[4] = Day 2, G10-G16 groups, single IP 400 mg/kg, Mean±SEM
[5] = Day 4, G10-G16 groups, single IP 400 mg/kg, Mean±SEM
[6] = Day 7, G10-G16 groups, single IP 400 mg/kg, Mean±SEM
[7] = Day 9, G10-G16 groups, single IP 400 mg/kg, Mean±SEM
[8] = Day 11, G10-G16 groups, single IP 400 mg/kg, Mean±SEM
[9] = Day 14, G10-G16 groups, single IP 400 mg/kg, Mean±SEM
[10] = Day 16, G10-G16 groups, single IP 400 mg/kg, Mean±SEM
[11] = Day 18, G10-G16 groups, single IP 400 mg/kg, Mean±SEM
[12] = Day 21, G10-G16 groups, single IP 400 mg/kg, Mean±SEM
[13] = Day 23, G10-G16 groups, single IP 400 mg/kg, Mean±SEM
[14] = Day 25, G10-G16 groups, single IP 400 mg/kg, Mean±SEM
[15] = Day 28, G10-G16 groups, single IP 400 mg/kg, Mean±SEM
[16] = Day 30, G10-G16 groups, single IP 400 mg/kg, Mean±SEM

Question: Which results are given for `CCCCOC(=O)Nc1nc(=O)n(C2OC(COC(=O)COc3nc(Cl)c(Cl)cc3Cl)C(O)C2(F)F)cc1-c1cn(Cc2ccccc2)nn1` (centres unmarked) [Compound G15]?
Answer: Weight change rate, Day 0 ([1]; Day 0, G10-G16 groups, single IP 400 mg/kg): 0.00%; Weight of mice, Day 0 ([1]; Day 0, G10-G16 groups, single IP 400 mg/kg, Mean±SEM): 20.15 ± 0.29 g; Weight change rate, Day 1 [1, 3]: −1.20 ± 1.02%; Weight of mice, Day 1 [1, 3]: 19.92 ± 0.44 g; Weight change rate, Day 2 [1, 4]: −11.24 ± 1.52 %; Weight of mice, Day 2 [1, 4]: 17.9 ± 0.52 g; Weight change rate, Day 4 [1, 5]: −18.30 ± 3.09 %; Weight of mice, Day 4 [1, 5]: 16.48 ± 0.77 g; Weight change rate, Day 7 [1, 6]: −1.96 ± 0.54%; Weight of mice, Day 7 [1, 6]: 20.10 ± 0.60 g; Weight change rate, Day 9 [1, 7]: 2.49 ± 2.01%; Weight of mice, Day 9 [1, 7]: 21.00 ± 0.10 g; Weight change rate, Day 11 [1, 8]: 4.46 ± 3.04%; Weight of mice, Day 11 [1, 8]: 21.40 ± 0.10 g; Weight change rate, Day 14 [1, 9]: 7.83 ± 1.17 %; Weight of mice, Day 14 [1, 9]: 22.1 ± 0.30 g; Weight change rate, Day 16 [1, 10]: 11.00 ± 1.00 %; Weight of mice, Day 16 [1, 10]: 22.75 ± 0.35 g; Weight change rate, Day 18 [1, 11]: 13.18 ± 0.32 %; Weight of mice, Day 18 [1, 11]: 23.20 ± 0.50 g; Weight change rate, Day 21 [1, 12]: 9.29 ± 0.71 %; Weight of mice, Day 21 [1, 12]: 22.40 ± 0.40 g; Day 22 Mortality ([1]; Day 22, single IP dose (mg/kg)): 67%; Weight change rate, Day 23 [1, 13]: 8.06 ± 0.44 %; Weight of mice, Day 23 [1, 13]: 22.15 ± 0.45 g; Weight change rate, Day 25 [1, 14]: 9.26 ± 0.26%; Weight of mice, Day 25 [1, 14]: 22.4 ± 0.60 g; Weight change rate, Day 28 [1, 15]: 7.08 ± 0.42%; Weight of mice, Day 28 [1, 15]: 21.95 ± 0.45 g; Weight change rate, Day 30 [1, 16]: 9.20 ± 2.70%; Weight of mice, Day 30 [1, 16]: 22.40 ± 1.10 g; clinical symptoms ([1]; after single IP dose, compared with model control group): no significant differences in clinical symptoms; Day 0 (RTV) ([2]; Day 0): 1.00; Tumor volume, Day 0 ([2]; Day 0, Mean±SEM): 80.27 ± 13.25 mm^3; Day 1 (TGI %) ([2]; Day 1): 35.29%; Day 1 (RTV) ([2]; Day 1, Mean±SEM): 1.44 ± 0.12; Tumor volume, Day 1 ([2]; Day 1, Mean±SEM): 116.82 ± 21* mm^3; Day 2 (TGI %) ([2]; Day 2): 44.25%; Day 2 (RTV) ([2]; Day 2, Mean±SEM): 1.50 ± 0.15; Tumor volume, Day 2 ([2]; Day 2, Mean±SEM): 123.70 ± 25.72* mm^3; Day 4 (TGI %) ([2]; Day 4): 67.87%; Day 4 (RTV) ([2]; Day 4, Mean±SEM): 1.11 ± 0.17; Tumor volume, Day 4 ([2]; Day 4, Mean±SEM): 95.41 ± 22.57** mm^3; Day 7 (TGI %) ([2]; Day 7): 86.92%; Day 7 (RTV) ([2]; Day 7, Mean±SEM): 0.88 ± 0.12; Tumor volume, Day 7 ([2]; Day 7, Mean±SEM): 56.58 ± 8.87** mm^3; Day 9 (TGI %) ([2]; Day 9): 91.92%; Day 9 (RTV) ([2]; Day 9, Mean±SEM): 0.77 ± 0.23; Tumor volume, Day 9 ([2]; Day 9, Mean±SEM): 47.71 ± 0.00** mm^3; Day 11 (TGI %) ([2]; Day 11): 92.19%; Day 11 (RTV) ([2]; Day 11, Mean±SEM): 1.19 ± 0.19; Tumor volume, Day 11 ([2]; Day 11, Mean±SEM): 76.28 ± 10.83** mm^3; Day 14 (TGI %) ([2]; Day 14): 86.10%; Day 14 (RTV) ([2]; Day 14, Mean±SEM): 3.15 ± 0.61; Tumor volume, Day 14 ([2]; Day 14, Mean±SEM): 200.24 ± 20.65** mm^3; Day 16 (TGI %) ([2]; Day 16): 77.07%; Day 16 (RTV) ([2]; Day 16, Mean±SEM): 6.58 ± 1.42; Tumor volume, Day 16 ([2]; Day 16, Mean±SEM): 415.31 ± 33.61** mm^3; Day 18 (TGI %) ([2]; Day 18): 71.73%; Day 18 (RTV) ([2]; Day 18, Mean±SEM): 8.97 ± 2.01; Tumor volume, Day 18 ([2]; Day 18, Mean±SEM): 564.86 ± 41.27** mm^3; Day 21 (TGI %) ([2]; Day 21): 60.58%; Day 21 (RTV) ([2]; Day 21, Mean±SEM): 15.35 ± 3.61; Tumor volume, Day 21 ([2]; Day 21, Mean±SEM): 963.72 ± 58.94 mm^3; Day 23 (TGI %) ([2]; Day 23): 59.19%; Day 23 (RTV) ([2]; Day 23, Mean±SEM): 15.35 ± 3.61; Tumor volume, Day 23 ([2]; Day 23, Mean±SEM): 963.72 ± 58.94 mm^3; Day 25 (TGI %) ([2]; Day 25): 57.93%; Day 25 (RTV) ([2]; Day 25, Mean±SEM): 17.32 ± 4.11; Tumor volume, Day 25 ([2]; Day 25, Mean±SEM): 1086.50 ± 63.85 mm^3; Day 28 (TGI %) ([2]; Day 28): 49.34%; Day 28 (RTV) ([2]; Day 28, Mean±SEM): 21.75 ± 5.25; Tumor volume, Day 28 ([2]; Day 28, Mean±SEM): 1362.50 ± 74.25 mm^3; Day 30 (TGI %) ([2]; Day 30): 37.03%; Day 30 (RTV) ([2]; Day 30, Mean±SEM): 28.66 ± 8.38; Tumor volume, Day 30 ([2]; Day 30, Mean±SEM): 1767.15 ± 0.00 mm^3; dose that could be tolerated (maximum tolerated dose, MTD) (ICR mice): 400 mg/kg
